Results taken from patent US6727234B2, “Isoprenoid analog compounds and methods of making and use thereof” (University of Iowa Research Foundation, priority 2001, dated 2004).

Legend:
[1] = tested on: cell membranes; assay: Penetration of cell membranes to afford fluorescent cells; type: cell-based; conditions: affords fluorescent cells
[2] = Fluorescence of the compound; type: physicochemical
Source text: Compound 58 can be used in enzyme experiments with FPTase and Ras in order to obtain standard Ras proteins labeled with the fluorescent isoprenoid analog. Similarly compound 62 can be used with GGPTase I or II and proteins such as Rho B to obtain other protein standards. Protein standards obtained from in vitro experiments can then be used to analyze cell lysates for the formation of analogous proteins through in vivo experiments. Compound 58 ^1H NMR(D2O) δ7.6 (1H), 7.2 (1H), 6.4 (2H), 5.4 (1H), 5.2 (1H), 4.4 (2H), 3.6 (3H), 3.4 (2H), 2.0 (2H), 1.8 (2H), 1.6 (3H), 1.4 (3H); and ^31P NMR −6.9 (d, 1P) −9.75 (d, 1P).

[3] = Metabolic stability compared to previously prepared analogs; type: in vitro ADME; conditions: compared to other previously prepared analogs; attributed to amine linkage binding anthranilic acid to the terpenoid chain
Source text: As exemplified in the reaction scheme below, Fischer esterification of commercial anthranilic acid provides the corresponding amino ester 54. Reductive amination of amine 54 with aldehyde 55, derived from SeO2 oxidation of geranyl acetate and subsequent MnO2 oxidation, gave the desired amine 56 and subsequent cleavage of the acetate gave the farnesol analog 57.

- penetration of cell membranes [1]: readily penetrates cell membranes
- fluorescence [2]: highly fluorescent
Compound: COC(=O)c1ccccc1NC/C(C)=C/CC/C(C)=C/CO [Compound 57]
- metabolic stability [3]: much greater degree of metabolic stability
